Reference: patent publication US12691119B2, “Methods for treating covid-19 with sepiapterin” (PTC Therapeutics MP, Inc., priority 2021, dated 2026)

Experiments:
[1] = Stability on exposure to air; type: physicochemical; conditions: exposed to air
From the text: Accordingly, pharmaceutical compositions of the invention may include antioxidants. The antioxidant may minimize the oxidative degradation of sepiapterin. […]

[2] = healthy volunteers and subjects with Phenylketonuria, Primary BH4 Deficiencies, or diabetic gastroparesis; cited from earlier work
[3] = system: CD8+ T cells (pmel splenocytes); assay: CFSE-labeled pmel splenocytes co-cultured with gp100-pulsed BMDCs; CFSE dilution by flow cytometry, cytokines by ELISA; type: cell-based; conditions: in vitro
From the text: FIG. 2A is a graph showing the proliferation and activation of CD8^+ T cells in the presence of sepiapterin in vitro.
FIG. 2B is a graph showing cytokine (interferon gamma, IFN-γ) expression in cells in the presence of sepiapterin in vitro.
FIG. 2C is a graph showing cytokine (interleukin 2, IL-2) expression in cells in the presence of sepiapterin in vitro.
1×10^5 pmel splenocytes were labeled with carboxyfluorescein succinimidyl ester (CFSE) and then co-cultured, at either a 1:10 or 1:40 ratio (splenocytes:BMDC), with gp100-pulsed bone marrow derived dendritic cells (BMDCs) for 3 days. Sepiapterin (SP) was added after BMDCs were added to splenocytes. After incubation, CFSE dilution was measured via flow cytometry (FIG. 2A) and cytokine expression was measured via ELISA (FIGS. 2B and 2C). No DC=no dendritic cells, UT=untreated. […] The enhanced secretion of IFN-γ in FIG. 2B is a result of the higher number of T cells present in wells treated with SP.

[4] = system: innate immune cell mediated inflammation in the colon; conditions: caused by DSS in the colon, preclinical models; cited from earlier work
[5] = system: cytokine expression in the lungs; assay: Intranasal LPS model of ARDS, cytokine expression in BAL fluid by ELISA; type: in vivo; conditions: mice, 10 mg/kg per day oral gavage for 3 days, then 40 ug LPS intranasally; BAL 16-18 hours later; FIG. 1
Method: FIG. 1 is a graph showing cytokine expression in the lungs of mice treated with intranasal lipopolysaccharide (LPS) with or without 10 mg/kg sepiapterin (SP) treatment.
This is in line with the therapeutic effect of SP in a Dextran Sulfate Sodium//Azoxymethane model of colitis/colon cancer.
Mice were treated with either 10 mg/kg sepiapterin (SP) per day delivered via oral gavage or nothing for 3 days. Mice were then treated with 40 ug lipopolysaccharide (LPS) inhaled intranasally. 16-18 hours later, bronchoalveolar lavage (BAL) fluid was collected and assess for cytokine expression via ELISA. Untreated (UT) (n=1), LSP (n=3), LSP+SP (n=2). (FIG. 1).

[6] = system: OT-I cells; assay: OT-I splenocyte transfer with ova peptide-pulsed BMDCs; proliferation and IFN-γ by flow cytometry; type: in vivo, C57/B16 mice; conditions: mice
Method: FIG. 3A is a graph showing the proliferation and activation of CD8^+ T cells in the presence of sepiapterin in vivo.
FIG. 3B is a graph showing cytokine (IFN-γ) expression in cells in the presence of sepiapterin in vivo.
2×10^6 OT-I splenocytes were injected into C57/B16 mice via tail vein injection. 24 hours later, 1×10^6 ova peptide-pulsed bone marrow derived dendritic cells were injected into these mice subcutaneously. Starting on day 3, mice were given 10 mg/kg SP orally for 3 consecutive days. On day 6, mice were sacrificed and spleens were harvested and stimulated for 6 hours with brefeldin A (BFA), phorbol myristate acetate (PMA), and ionomycin. OT-I proliferation (FIG. 3A) and IFN-γ expression (FIG. 3B) were assessed via flow cytometry.

C[C@H](O)C(=O)C1=Nc2c(nc(N)[nH]c2=O)NC1 [sepiapterin, (S)-2-amino-6-(2-hydroxypropanoyl)-7,8-dihydropteridin-4(3H)-one]
oxidation stability [1]: prone to rapid oxidation when exposed to air | tolerability [2]: well tolerated | proliferation of CD8+ T cells (CFSE dilution) ([3]; 3 days co-culture, 1:10 or 1:40 splenocytes:BMDC, FIG. 2A): enhanced proliferation of anti-viral CD8^+ T cells in a dose dependent manner | T cell activation and IFN-γ secretion ([3]; ELISA, FIGS. 2B and 2C): without directly affecting T cell activation and IFN-γ secretion | innate immune cell mediated inflammation [4]: profoundly suppress innate immune cell mediated inflammation | cytokine expression in bronchoalveolar lavage (BAL) fluid [5]: lower levels of cytokine expression | OT-I proliferation ([6]; 10 mg/kg orally for 3 consecutive days from day 3, spleens day 6, FIG. 3A): enhanced proliferation of OT-I cells | T cell activation and IFN-γ secretion ([6]; 10 mg/kg orally for 3 consecutive days, spleens stimulated 6 hours with BFA, PMA, ionomycin, FIG. 3B): minimal effect on T cell activation and IFN-γ secretion
